According to patent publication US20030138816A1, “Methods and kits for diagnosing the occurrence or the phase of minimal change nephrotic syndrome (MCNS) in a human” (INSTITUT NATIONAL DE LA SANTE ET DE LA RECHERCHE MEDICALE, priority 2001, published 2003):
Residues, ends and D or L forms follow the SMILES beside them. *: point of attachment. Cbz = O=C(OCc1ccccc1)*

Key:
[1] = system: patient with Minimal Change Nephrotic Syndrome; test: Prednisone treatment of the patient selected for the subtractive library (onset of nephrotic syndrome, MCNS); assay type: in vivo, human; details: one patient, prednisone 1 mg/kg/day for four weeks, then tapered
PBMC from relapse = test: Incubation of PBMCs with the proteasome inhibitor MG132, c-maf protein in protein extracts; assay type: cell-based, human; details: co culture of PBMC from MCNS relapse with MG132, 10 μM, overnight
Experimental: 5) Quantification of IL4 mRNA by quantitative RT-PCR. Quantitative PCR was performed using the Light Cycler (Roche Molecular Biochemical). The samples (2 μl of the RT reaction, corresponding to 20 ng of total RNA) were amplified in a 20 μl reaction mixture containing […] each primer, and 1×mix LightCycler-DNA master SYBR Green buffer (Roche Molecular Biochemical). Carry-over was prevented by using dUTP instead of dTTP, and heat-labile Uracil DNA glyco-sylase (UDG). A standard curve was made using dilution of the RNA prepared from pUc9-IL4 plasmid. The PCR reaction was started by a denaturation at 95° C. for 2 min followed by 40 three step cycles (95° C.: 1 sec, 60° C.: 10 sec, and 72° C.: 24 sec). The relative value for each sample was calculated using the LightCycler analysis software. 6) Electromobility shift assays (EMSA), immunoprecipitations and Western blottings: Cytosolic and nuclear protein preparations as well as EMSA were performed as previously described (34). […] The subunit composition of DNA-protein complexes containing c-Maf was determined by preincubation of nuclear extracts with 1 μg of polyclonal antibodies raised against c-Maf (sc-7866), c-Fos (sc-7202), and c-Jun (sc-1694), (Santa Cruz, Biotechnology), before the addition of the probe. […] Band shifts were quantified using the ImageQuant V1.11 analysis software. […]

Row | SMILES | remission of nephrotic syndrome [1] | effect on L/c-maf protein (long form) (PBMC from relapse) | effect on S/c-maf protein (short form) (PBMC from relapse)
1 | C[C@]12C=CC(=O)C=C1CC[C@@H]1[C@@H]2C(=O)C[C@@]2(C)[C@H]1CC[C@]2(O)C(=O)CO [prednisone] | Complete remission was obtained within ten days |  | 
2 | CC(C)C[C@@H](C=O)NC(=O)[C@H](CC(C)C)NC(=O)[C@H](CC(C)C)NC(=O)OCc1ccccc1 [MG132, carbobenzoxyl-leucinyl-leucinyl-leucinal-H] (Cbz-Leu-Leu-Leu-aldehyde) |  | no evident change | induces a sequestration of S/c-maf protein
